Experimental data: patent US8501908B2, “Immunogenic peptides” (priority 2008, dated 2013)

Legend:
Type in all cases: cell-based, human
[1] = test system: PBMCs from DLBCL patients; assay: γ-IFN release ELISPOT, PBMCs of DLBCL patients after short-term culture with peptides; set-up: γ-IFN response to peptides: unit not given here; conditions: for γ-IFN response to peptides: triplicate ELISPOT; for TH γ-IFN response to peptides at time of diagnosis and after one year: DLBCL patients (FIG. 5)
[2] = test system: PBMCs from healthy donors; assay: γ-IFN release ELISPOT, PBMCs of healthy donors after short-term culture with peptides; conditions: triplicate ELISPOT, ± SD
[3] = test system: Thiel (myeloma) cell line; assay: 51Cr release cytolytic assay of peptide-specific CTL/TH cell lines; conditions: PASD1-positive Thiel; 18 h 51Cr release
Protocol: (§1) A conventional ^51Cr-labelling release assay was used to investigate the ability of CTL and TH cell lines generated from DLBCL patients to lyse PASD1-positive tumour target cells. The target cell lines, consisting of the OCI-Ly3, SUDHL-6, KM-H2 and Thiel, were radiolabelled with 100 μCi ^51Cr for 90 minutes. […] The incubation period of the TH with the target cells was increased to 18 hours. Maximum ^51Cr release was determined following the addition of 10% Triton-X to the radiolabelled target cells and spontaneous release was assessed by adding RPMI1640/FCS to the target cells. The supernatant was harvested and counted in a gamma-counter (Beckmann, Heidelberg, Germany).

[4] = test system: SUDHL-6 (DLBCL) cell line; assay: as above; conditions: PASD1-negative SUDHL-6; 18 h 51Cr release
Protocol: as §1

[5] = test system: OCI-Ly3 (DLBCL) cell line; assay: as above; conditions: PASD1-positive OCI-Ly3; 18 h 51Cr release
Protocol: as §1

[6] = Patient 1, De novo DLBCL, DRB1-0102, group Significant response, ± SD
[7] = Patient 2, De novo DLBCL, DRB1-0101, group Significant response, ± SD
[8] = Patient 3, De novo DLBCL, DRB1-0301, group Significant response, ± SD
[9] = Patient 4, De novo DLBCL, DRB1-0102, group Significant response, ± SD
[10] = Patient 8, De novo DLBCL, DRB1-1501, group Significant response, ± SD
[11] = Patient 9, De novo DLBCL, DRB1-0301, group Significant response, ± SD
[12] = Patient 10, De novo DLBCL, DRB1-0101, group No significant response, ± SD
[13] = Patient 12, De novo DLBCL, DRB1-0401, group Significant response, ± SD
[14] = Patient 15, De novo DLBCL, DRB1-1301, group No significant response, ± SD
[15] = Patient 17, De novo DLBCL, DRB1-0301, group No significant response, ± SD
[16] = Patient 18, De novo DLBCL, DRB1-0401, group No significant response, ± SD
[17] = Patient 19, De novo DLBCL, DRB1-1104, group No significant response, ± SD
[18] = Patient 20, De novo DLBCL, DRB1-1303, group No significant response, ± SD
[19] = Patient 21, De novo DLBCL, DRB1-0301, group No significant response, ± SD
[20] = Patient 24, De novo DLBCL, DRB1-1301, group Significant response, ± SD
[21] = Patient 28, Trans DLBCL, DRB1-0701, group No significant response, ± SD
[22] = Patient 37, Trans DLBCL, DRB1-0103, group Significant response, ± SD
[23] = Patient 48, T-cell rich DLBCL, DRB1-0301, group Significant response, ± SD
[24] = Patient 61, De novo DLBCL, DRB1-0401, group No significant response, ± SD
[25] = PBMCs from a DLBCL patient stimulated in culture with PASD1(6) or PASD1(7) peptides, +/− SD

Substance	γ-IFN response to peptides [1, 6]	γ-IFN response to peptides [1, 7]	γ-IFN response to peptides [1, 8]	γ-IFN response to peptides [1, 9]	γ-IFN response to peptides [1, 10]	γ-IFN response to peptides [1, 11]	γ-IFN response to peptides [1, 12]	γ-IFN response to peptides [1, 13]	γ-IFN response to peptides [1, 14]	γ-IFN response to peptides [1, 15]	γ-IFN response to peptides [1, 16]	γ-IFN response to peptides [1, 17]	γ-IFN response to peptides [1, 18]	γ-IFN response to peptides [1, 19]	γ-IFN response to peptides [1, 20]	γ-IFN response to peptides [1, 21]	γ-IFN response to peptides [1, 22]	γ-IFN response to peptides [1, 23]	γ-IFN response to peptides [1, 24]	γ-IFN response to peptides ([2]; Healthy donor HD 1, DRB1-0102)	further results
VGNVCILRTQLLQQLYTSKA (listed as Homo sapiens) [PASD1(9)]	30 ± 2	24 ± 2	24 ± 2	18 ± 2	18 ± 2	20 ± 2	10 ± 2	20 ± 4	8 ± 2	8 ± 2	24 ± 2	18 ± 2	8 ± 2	16 ± 2	26 ± 4	22 ± 4	28 ± 2	26 ± 2	16 ± 2	14 ± 2	γ-IFN response to peptides ([2]; Healthy donor HD 2, DRB1-0401): 1 ± 1; γ-IFN response to peptides ([2]; Healthy donor HD 3, DRB1-0401): 8 ± 2; γ-IFN response to peptides ([2]; Healthy donor HD 4, DRB1-0301): 19 ± 2; γ-IFN response to peptides ([2]; Healthy donor HD 5, DRB1-0301): 18 ± 2
DYFNQVTLQLLDGFMITLST (listed as Homo sapiens) [PASD1(6)]	52 ± 6	32 ± 4	34 ± 4	58 ± 8	36 ± 6	22 ± 6	30 ± 8	44 ± 6	28 ± 4	20 ± 2	14 ± 2	22 ± 2	10 ± 2	18 ± 2	22 ± 4	28 ± 4	38 ± 4	48 ± 4	22 ± 2	14 ± 2	lysis by TH cell lines specific for the peptide [3]: Significant dose dependent lysis; lysis by TH cell lines specific for the peptide [4]: no significant lysis; lysis by TH cell lines specific for the peptide [5]: Significant dose dependent lysis; TH γ-IFN response to peptides at time of diagnosis and after one year ([1]; short term culture, p<0.05): significant; γ-IFN response to peptides [1, 25]: 32 +/− 2; immunogenicity among patients studied ([1]; TH γ-IFN response, DLBCL patients): immunogenic in the majority of patients; γ-IFN response to the PASD1(1) CTL peptide elicited by culture with the peptide ([1]; cells cultured 8-10 days with PASD1(6) or PASD1(7), Table 4): comparable; order of immunogenicity for eliciting TH cell responses ([1]; from γ-IFN release assay, order PASD1(6), PASD1(7), PASD1(10), PASD1(9), PASD1(8)): most immunogenic; γ-IFN response to peptides ([2]; Healthy donor HD 2, DRB1-0401): 10 ± 2; γ-IFN response to peptides ([2]; Healthy donor HD 3, DRB1-0401): 5 ± 2; γ-IFN response to peptides ([2]; Healthy donor HD 4, DRB1-0301): 14 ± 2; γ-IFN response to peptides ([2]; Healthy donor HD 5, DRB1-0301): 24 ± 2
phytohaemagglutinin [PHA, reference compound]	98 ± 15	106 ± 18	62 ± 8	98 ± 14	48 ± 4	118 ± 18	78 ± 8	72 ± 10	58 ± 6	54 ± 12	62 ± 12	58 ± 14	52 ± 10	102 ± 10	86 ± 14	45 ± 8	126 ± 22	84 ± 10	58 ± 10	86 ± 14	γ-IFN response to peptides [1, 25]: 48 +/− 2; γ-IFN response to peptides ([2]; Healthy donor HD 2, DRB1-0401): 66 ± 10; γ-IFN response to peptides ([2]; Healthy donor HD 3, DRB1-0401): 46 ± 6; γ-IFN response to peptides ([2]; Healthy donor HD 4, DRB1-0301): 74 ± 16; γ-IFN response to peptides ([2]; Healthy donor HD 5, DRB1-0301): 63 ± 10
ILKEPVHGV [HIV peptide, reference compound]																					TH γ-IFN response to peptides at time of diagnosis and after one year ([1]; short term culture, p<0.05): No significant response; γ-IFN response to CTL peptides at time of diagnosis and after one year ([1]; HLA-A*0201-positive DLBCL patients (12 and 48, FIG. 2a), short term culture, p<0.05): No significant response
DESFRKYTAFTIPSMNNETP (Human immunodeficiency virus type 1) [HIV-1, control irrelevant peptide from HIV-1 reverse transcriptase used with the TH peptides, reference compound]	2 ± 1	16 ± 2	8 ± 2	14 ± 2	12 ± 4	4 ± 2	16 ± 4	12 ± 2	14 ± 4	10 ± 2	14 ± 2	12 ± 2	10 ± 2	10 ± 2	8 ± 2	6 ± 2	16 ± 2	12 ± 2	12 ± 2	8 ± 2	γ-IFN response to peptides ([2]; Healthy donor HD 2, DRB1-0401): 6 ± 2; γ-IFN response to peptides ([2]; Healthy donor HD 3, DRB1-0401): 1 ± 1; γ-IFN response to peptides ([2]; Healthy donor HD 4, DRB1-0301): 10 ± 2; γ-IFN response to peptides ([2]; Healthy donor HD 5, DRB1-0301): 8 ± 2
AENISSLLGHLPAEIVGKKL (listed as Homo sapiens) [PASD1(8)]	32 ± 3	36 ± 6	18 ± 2	28 ± 4	20 ± 4	12 ± 3	36 ± 4	24 ± 4	10 ± 1	14 ± 2	20 ± 2	24 ± 2	18 ± 2	14 ± 2	28 ± 4	16 ± 2	16 ± 2	40 ± 6	12 ± 2	18 ± 2	γ-IFN response to peptides ([2]; Healthy donor HD 2, DRB1-0401): 10 ± 2; γ-IFN response to peptides ([2]; Healthy donor HD 3, DRB1-0401): 6 ± 2; γ-IFN response to peptides ([2]; Healthy donor HD 4, DRB1-0301): 10 ± 2; γ-IFN response to peptides ([2]; Healthy donor HD 5, DRB1-0301): 10 ± 2
NHPVRFLQAQPIVPVQRAAE (listed as Homo sapiens) [PASD1(10)]	40 ± 2	40 ± 4	32 ± 2	32 ± 4	18 ± 4	14 ± 2	32 ± 2	32 ± 4	18 ± 4	10 ± 4	22 ± 2	12 ± 2	16 ± 2	18 ± 2	16 ± 4	10 ± 2	34 ± 2	38 ± 2	6 ± 2	10 ± 2	γ-IFN response to peptides ([2]; Healthy donor HD 2, DRB1-0401): 4 ± 2; γ-IFN response to peptides ([2]; Healthy donor HD 3, DRB1-0401): 2 ± 1; γ-IFN response to peptides ([2]; Healthy donor HD 4, DRB1-0301): 18 ± 2; γ-IFN response to peptides ([2]; Healthy donor HD 5, DRB1-0301): 16 ± 2
